Measurements taken from patent US7456167B2, “Cyclopropyl fused indolobenzazepine HCV NS5B inhibitors” (Bristol-Myers Squibb Company, priority 2006, dated 2008).
Read-outs that look alike come from different tables or passages of the source.

Experiments:
[1] = biological target: T1, HCV NS5B RdRp genotype 1b (Hepatitis C virus genotype 1b, UniProt Q9WMX2); assay: Modified HCV NS5B RdRp enzyme assay (preincubation protocol); type: biochemical
T1 construct: The protein was expressed with an 18 amino acid C-terminal truncation to enhance the solubility; made in house; host or cells: E. coli BL21(DE3)
Experimental: HCV NS5B RdRp cloning, expression, and purification. The cDNA encoding the NS5B protein of HCV, genotype 1b, was cloned into the pET21a expression vector. The protein was expressed with an 18 amino acid C-terminal truncation to enhance the solubility. The E. coli competent cell line BL21(DE3) was used for expression of the protein. Cultures were grown at 37° C. for ˜4 hours until the cultures reached an optical density of 2.0 at 600 nm. The cultures were cooled to 20° C. and induced with 1 mM IPTG. Fresh ampicillin was added to a final concentration of 50 μg/ml and the cells were grown overnight at 20° C.
Cell pellets (3 L) were lysed for purification to yield 15-24 mgs of purified NS5B. The lysis buffer consisted of 20 mM Tris-HCl, pH 7.4, 500 mM NaCl, 0.5% triton X-100, 1 mM DTT, 1 mM EDTA, 20% glycerol, 0.5 mg/ml lysozyme, 10 mM MgCl2, 15 ug/ml deoxyribonuclease I, and Complete TM protease inhibitor tablets (Roche). After addition of the lysis buffer, frozen cell pellets were resuspended using a tissue homogenizer. To reduce the viscosity of the sample, aliquots of the lysate were sonicated on ice using a microtip attached to a Branson sonicator. The sonicated lysate was centrifuged at 100,000×g for 1 hr at 4° C. and filtered through a 0.2 μm filter unit (Corning).
The protein was purified using three sequential chromatography steps: Heparin sepharose CL-6B, polyU sepharose 4B, and Hitrap SP sepharose (Pharmacia). The chromatography buffers were identical to the lysis buffer but contained no lysozyme, deoxyribonuclease I, MgCl2 or protease inhibitor and the NaCl concentration of the buffer was adjusted according to the requirements for charging the protein onto the column. Each column was eluted with a NaCl gradient which varied in length from 5-50 column volumes depending on the column type. After the final chromatography step, the resulting purity of the enzyme is >90% based on SDS-PAGE analysis. The enzyme was aliquoted and stored at −80° C.
Standard HCV NS5B RdRp enzyme assay. HCV RdRp genotype 1b assays were run in a final volume of 60 μl in 96 well plates (Costar 3912). The assay buffer is composed of 20 mM Hepes, pH 7.5, 2.5 mM KCl, 2.5 mM MgCl2, 1 mM DTT, 1.6 U RNAse inhibitor (Promega N2515), 0.1 mg/ml BSA (Promega R3961), and 2% glycerol. All compounds were serially diluted (3-fold) in DMSO and diluted further in water such that the final concentration of DMSO in the assay was 2%. HCV RdRp genotype 1b enzyme was used at a final concentration of 28 nM. A polyA template was used at 6 nM, and a biotinylated oligo-dT12 primer was used at 180 nM final concentration. Template was obtained commercially (Amersham 27-4110). Biotinylated primer was prepared by Sigma Genosys. 3H-UTP was used at 0.6 μCi (0.29 μM total UTP). Reactions were initiated by the addition of enzyme, incubated at 30° C. for 60 min, and stopped by adding 25 μl of 50 mM EDTA containing SPA beads (4 μg/μl, Amersham RPNQ 0007). Plates were read on a Packard Top Count NXT after >1 hr incubation at room temperature.
Modified HCV NS5B RdRp enzyme assay. A modified enzyme assay was performed essentially as described for the standard enzyme assay except for the following: The biotinylated oligo dT12 primer was precaptured on streptavidin-coated SPA beads by mixing primer and beads in assay buffer and incubating at room temperature for one hour. Unbound primer was removed after centrifugation. The primer-bound beads were resuspended in 20 mM Hepes buffer, pH 7.5 and used in the assay at final concentrations of 20 nM primer and 0.67 μg/μl beads. Order of addition in the assay: enzyme (14 nM) was added to diluted compound followed by the addition of a mixture of template (0.2 nM), 3H-UTP (0.6 μCi, 0.29 μM), and primer-bound beads, to initiate the reaction; concentrations given are final. Reactions were allowed to proceed for 4 hours at 30° C.
IC50 values for compounds were determined using seven different [I]. […]

HCV replicon cells = assay: HCV replicon FRET assay; type: cell-based
Source text: FRET Assay Preparation. To perform the HCV FRET screening assay, 96-well cell culture plates were used. The FRET peptide (Anaspec, Inc.) (Taliani et al., Anal. Biochem. 1996, 240, 60-67) contains a fluorescence donor, EDANS, near one end of the peptide and an acceptor, DABCYL, near the other end. The fluorescence of the peptide is quenched by […] resonance energy transfer (RET) between the donor and the acceptor, but as the NS3 protease cleaves the peptide the products are released from RET quenching and the fluorescence of the donor becomes apparent. The assay reagent was made as follows: 5× cell Luciferase cell culture lysis reagent from Promega (#E153A) diluted to 1× with dH2O, NaCl added to 150 mM final, the FRET peptide diluted to 20 uM final from a 2 mM stock.
To prepare plates, HCV replicon cells, with or without a Renilla luciferase reporter gene, were trypsinized and placed into each well of a 96-well plate with titrated test compounds added in columns 3 through 12; columns 1 and 2 contained a control compound (HCV protease inhibitor), and the bottom row contained cells without compound. The plates were then placed in a CO2 incubator at 37° C.
Assays. Subsequent to addition of the test compounds described above (FRET Assay Preparation), at various times the plate was removed and Alamar blue solution (Trek Diagnostics, #00-100) was added per well as a measure of cellular toxicity. After reading in a Cytoflour 4000 instrument (PE Biosystems), plates were rinsed with PBS and then used for FRET assay by the addition of 30 ul of the FRET peptide assay reagent described above (FRET Assay Preparation) per well. The plate was then placed into the Cytoflour 4000 instrument which had been set to 340 excite/490 emission, automatic mode for 20 cycles and the plate read in a kinetic mode. Typically, the signal to noise using an endpoint analysis after the reads was at least three-fold. Alternatively, after Alamar blue reading, plates were rinsed with PBS, 50 ul of DMEM (high glucose) without phenol red was added and plates were then used for luciferase assay using the Promega Dual-Glo Luciferase Assay System.
Compound analysis was determined by quantification of the relative HCV replicon inhibition and the relative cytotoxicity values. To calculate cytoxicity values, the average Alamar Blue fluorescence signals from the control wells were set as 100% non-toxic. The individual signals in each of the compound test wells were then divided by the average control signal and multiplied by 100% to determine […]. To calculate the HCV replicon inhibition values, an average background value was obtained from the two wells containing the highest amount of HCV protease inhibitor at the end of the assay period. These numbers were similar to those obtained from naïve Huh-7 cells.
The background numbers were then subtracted from the average signal obtained from the control wells and this number was used as 100% activity. The individual signals in each of the compound test wells were then divided by the averaged control values after background subtraction and multiplied by 100% to determine percent activity. EC50 values for a protease inhibitor titration were calculated as the concentration which caused a 50% reduction in FRET or luciferase activity. The two numbers generated for the compound plate, percent cytoxicity and percent activity were used to determine compounds of interest for further analysis.

[2] = HCV NS5B RdRp genotype 1b, preincubation protocol, read-out: IC50
[3] = Hepatitis C virus, HCV replicon cells, FRET assay, read-out: EC50

T1 sequence (Q9WMX2 2420-2992): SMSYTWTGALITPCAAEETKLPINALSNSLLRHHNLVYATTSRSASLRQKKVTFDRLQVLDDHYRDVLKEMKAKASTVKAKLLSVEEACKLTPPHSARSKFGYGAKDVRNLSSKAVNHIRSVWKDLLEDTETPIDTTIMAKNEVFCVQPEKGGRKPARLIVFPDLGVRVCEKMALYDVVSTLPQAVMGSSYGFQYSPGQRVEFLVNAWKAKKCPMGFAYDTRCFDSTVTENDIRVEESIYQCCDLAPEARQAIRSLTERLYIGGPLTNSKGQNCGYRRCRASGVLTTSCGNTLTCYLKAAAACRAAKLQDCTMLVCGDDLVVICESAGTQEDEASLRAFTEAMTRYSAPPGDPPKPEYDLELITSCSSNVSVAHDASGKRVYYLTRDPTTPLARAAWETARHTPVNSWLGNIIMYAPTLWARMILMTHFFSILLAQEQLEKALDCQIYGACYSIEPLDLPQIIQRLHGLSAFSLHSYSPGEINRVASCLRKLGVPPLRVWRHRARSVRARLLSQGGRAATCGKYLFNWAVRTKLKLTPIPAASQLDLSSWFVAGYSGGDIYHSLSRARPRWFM

Compound | IC50 [1, 2] | EC50 (HCV replicon cells; [3]) | IC50 [1] | EC50 (HCV replicon cells; Hepatitis C virus) | EC50 (HCV replicon cells; HCV replicon cells, FRET assay, read-out: EC50)
CN(C)S(=O)(=O)NC(=O)c1ccc2c(C3CCCCC3)c3n(c2c1)CC(S(=O)(=O)N1CCOCC1)=Cc1ccccc1-3 | 20 to 1000 nM | 20 to 1000 nM |  |  | 
COc1ccc2c(c1)C1CC1(S(=O)(=O)N1CC[C@@H](N(C)C)C1)Cn1c-2c(C2CCCCC2)c2ccc(C(=O)NS(=O)(=O)N(C)C)cc21 (stereo partly drawn) | 20 to 1000 nM | 20 to 1000 nM |  |  | 
COc1ccc2c(c1)C1CC1(S(=O)(=O)N(C)CC(=O)N1CCOCC1)Cn1c-2c(C2CCCCC2)c2ccc(C(=O)NS(=O)(=O)N(C)C)cc21 (stereo not drawn) | 20 to 1000 nM | 20 to 1000 nM |  |  | 
COc1ccc2c(c1)C1CC1(S(=O)(=O)N1C3CCC1CC(C)(O)C3)Cn1c-2c(C2CCCCC2)c2ccc(C(=O)NS(=O)(=O)N3CCOCC3)cc21 (stereo not drawn) |  |  | 20 to 1000 nM | 20 to 1000 nM | 
COc1ccc2c(c1)C1CC1(S(=O)(=O)N(C)CCN(C)C)Cn1c-2c(C2CCCCC2)c2ccc(C(=O)O)cc21 (stereo not drawn) | 20 to 1000 nM | 20 to 1000 nM |  |  | 
CCN(C)S(=O)(=O)NC(=O)c1ccc2c(C3CCCCC3)c3n(c2c1)CC1(S(=O)(=O)N2C[C@@H](C)N(C)[C@@H](C)C2)CC1c1cc(OC)ccc1-3 (stereo partly drawn) | 20 to 1000 nM | 20 to 1000 nM |  |  | 
COc1ccc2c(c1)CC(S(=O)(=O)CCN(C)C)Cn1c-2c(C2CCCCC2)c2ccc(C(=O)NS(=O)(=O)N(C)C)cc21 (stereo not drawn) | 20 to 1000 nM | 20 to 1000 nM |  |  | 
COc1ccc2c(c1)C1CC1(S(=O)(=O)N1CCCN(C)CC1)Cn1c-2c(C2CCCCC2)c2ccc(C(=O)O)cc21 (stereo not drawn) | 20 to 1000 nM | 20 to 1000 nM |  |  | 
COc1ccc2c(c1)C1CC1(S(=O)(=O)N1C[C@@H](C)N(C)[C@@H](C)C1)Cn1c-2c(C2CCCCC2)c2ccc(C(=O)NS(=O)(=O)N3CCCC3)cc21 (stereo partly drawn) | 20 to 1000 nM | 20 to 1000 nM |  |  | 
COc1ccc2c(c1)C1CC1(S(=O)(=O)N1C3CC1CN(C)C3)Cn1c-2c(C2CCCCC2)c2ccc(C(=O)NS(=O)(=O)C3CC3)cc21 (stereo not drawn) | 20 to 1000 nM | 20 to 1000 nM |  |  | 
COc1ccc2c(c1)C1CC1(S(=O)(=O)N1C[C@@H](C)N(C)[C@@H](C)C1)Cn1c-2c(C2CCCCC2)c2ccc(C(=O)NS(=O)(=O)N3CCC3)cc21 (stereo partly drawn) | 20 to 1000 nM | 20 to 1000 nM |  |  | 
COc1ccc2c(c1)C1CC1(S(=O)(=O)N1CCN3CCCC3C1)Cn1c-2c(C2CCCCC2)c2ccc(C(=O)NS(=O)(=O)N(C)C)cc21 (stereo not drawn) | 20 to 1000 nM | 20 to 1000 nM |  |  | 
COc1ccc2c(c1)CC(S(=O)(=O)N1CCOCC1)Cn1c-2c(C2CCCCC2)c2ccc(C(=O)O)cc21 (stereo not drawn) | 20 to 1000 nM | 20 to 1000 nM |  |  | 
COc1ccc2c(c1)C=C(S(=O)(=O)N1CCOCC1)Cn1c-2c(C2CCCCC2)c2ccc(C(=O)NS(=O)(=O)N(C)C)cc21 | 20 to 1000 nM | 20 to 1000 nM |  |  | 
COc1ccc2c(c1)C1CC1(S(=O)(=O)N1CCCC1)Cn1c-2c(C2CCCCC2)c2ccc(C(=O)NS(=O)(=O)N3CCOCC3)cc21 (stereo not drawn) | 20 to 1000 nM | 20 to 1000 nM |  |  | 
COc1ccc2c(c1)CC(S(=O)(=O)CCN1CCOCC1)Cn1c-2c(C2CCCCC2)c2ccc(C(=O)NS(=O)(=O)N(C)C)cc21 (stereo not drawn) | 20 to 1000 nM | 20 to 1000 nM |  |  | 
COc1ccc2c(c1)C1CC1(S(=O)(=O)N1CCN3CCCC3C1)Cn1c-2c(C2CCCCC2)c2ccc(C(=O)NS(=O)(=O)N3CCOCC3)cc21 (stereo not drawn) [drawing 65] | 20 to 1000 nM |  |  |  | 20 to 1000 nM
CCS(=O)(=O)C1Cc2ccccc2-c2c(C3CCCCC3)c3ccc(C(=O)NS(=O)(=O)N(C)C)cc3n2C1 (stereo not drawn) | 20 to 1000 nM | 20 to 1000 nM |  |  | 
COc1ccc2c(c1)C1CC1(S(=O)(=O)N1C3CCC1CN(C)C3)Cn1c-2c(C2CCCCC2)c2ccc(C(=O)NS(=O)(=O)N(C)C)cc21 (stereo not drawn) |  |  | 20 to 1000 nM | 20 to 1000 nM | 
COc1ccc2c(c1)C1CC1(S(=O)(=O)N1CCN(C)CC1)Cn1c-2c(C2CCCCC2)c2ccc(C(=O)NS(=O)(=O)N(C)C)cc21 (stereo not drawn) | 20 to 1000 nM | 20 to 1000 nM |  |  | 
COc1ccc2c(c1)C1CC1(S(=O)(=O)N1CCN3CCC1CC3)Cn1c-2c(C2CCCCC2)c2ccc(C(=O)NS(=O)(=O)N(C)C)cc21 (stereo not drawn) | 20 to 1000 nM | 20 to 1000 nM |  |  | 
COc1ccc2c(c1)C1CC1(S(=O)(=O)N1CCC(O)CC1)Cn1c-2c(C2CCCCC2)c2ccc(C(=O)O)cc21 (stereo not drawn) | 20 to 1000 nM | 20 to 1000 nM |  |  | 
COc1ccc2c(c1)C1CC1(S(=O)(=O)N1C[C@@H](C)N(C)[C@@H](C)C1)Cn1c-2c(C2CCCCC2)c2ccc(C(=O)NS(C)(=O)=O)cc21 (stereo partly drawn) | 20 to 1000 nM | 20 to 1000 nM |  |  | 
COc1ccc2c(c1)C=C(S(=O)(=O)N1CCN(C)CC1)Cn1c-2c(C2CCCCC2)c2ccc(C(=O)NS(=O)(=O)N(C)C)cc21 | 20 to 1000 nM | 20 to 1000 nM |  |  | 
